Data as given in patent US20230241071A1, “COMBINATION TREATMENT OF LIVER DISORDERS” (Terns Pharmaceuticals, Inc., priority 2021, published 2023).
“Also recorded” adds a separate entry of the source.

Assays:
[1] = Multiple-ascending dose trial of Compound 1 in healthy participants: safety and PK; assay type: in vivo, human; settings: for Cmax / Tmax / AUC(0-t) / half-life: human, plasma; for Cmax / AUC(0-t): mean (CV %); for Tmax / half-life: median (min, max)
Description: A multiple-ascending dose clinical trial of Compound 1 was performed.

[2] = system: SD rats fed a high cholesterol diet; assay: Rat hypercholesterolemic model; assay type: in vivo; settings: single IP dose 0.3 to 30 mpk, 24 h after injection
Description: SD rats were fed a high cholesterol diet for 2 weeks, increasing the serum cholesterol levels ˜4-fold over that time. Single doses of Compound 2 from 0.3 to 30 mpk or a single 30 mpk dose of MGL-3196 were injected IP and serum was analyzed for total serum cholesterol and triglycerides 24 h after the injection.

[3] = Capsule pharmacokinetics in beagle dogs; assay type: in vivo, dog
Description: To determine the effect of the solubilizer on the uptake of compound 2, 50 mg (based on free acid) Compound 2 was formulated in a capsule with or without 5 wt % SLS (see Table 10) and was administered to fasted beagle dogs pre-treated with pentagastrin (6 μg/kg, administered by intramuscular injection 30±2 minutes prior to administration of compound 2). The plasma concentration of compound 2 was measured over 24 hours (see FIG. 9).
To determine the pH effect on PK performance, beagle dogs were divided into two groups (n=3 per group). For group 1, dogs were pre-treated with pentagastrin (6 μg/kg, intramuscular injection 30±2 minutes prior to administration of compound 2). For group 2, dogs were pre-treated with famotidine (2 tablets, 20 mg/tablet, oral administration 180±10 minutes prior to administration of compound 2). Compound 2 (10 mg capsule, 5% SLS) was administered, and plasma concentrations of compound 2 were monitored for 24 h and are depicted in FIG. 10. […] To determine the food effect on PK performance, beagle dogs were divided into two groups (n=3 per group). For the fasted group, dogs were fasted overnight through 4-hours post dosing. For the fed group, dogs were fed high fat food 30 minutes prior to administration. Plasma concentrations of compound 2 were monitored for 24 h. Compound 2 (10 mg capsule, 5% SLS) was administered, and plasma concentrations of compound 2 were monitored for 24 h and are depicted in FIG. 11.

[4] = 10 mg, 10 mg QD, Last day (of 14)

## COC1CCN(c2ncc(OC/C(=C/F)CN)cn2)CC1 [Compound 1, (E)-3-fluoro-2-(((2-(4-methoxypiperidin-1-yl)pyrimidin-5-yl)oxy)methyl)prop-2-en-1-amine]
[1]; 1 mg QD 7 days (n = 6)
  Subject incidence of TEAEs considered possibly treatment-related: 1 (16.7) n (%)
  Subject incidence of any TEAE: 2 (33.3) n (%)
  TEAE frequency: Back pain: 0
  TEAE frequency: Catheter site inflammation: 0
  TEAE frequency: Contusion: 0
  TEAE frequency: Dermatitis contact: 1 (16.7)
  TEAE frequency: Diarrhea: 0
  TEAE frequency: Dizziness: 1 (16.7)
  TEAE frequency: Medical device site reaction: 0
  TEAE frequency: Rhinitis: 0
  TEAE frequency: headache: 1 (12.5)
[1]; 4 mg QD 7 days (n = 6)
  Subject incidence of TEAEs considered possibly treatment-related: 0 n (%)
  Subject incidence of any TEAE: 2 (33.3) n (%)
  TEAE frequency: Back pain: 0
  TEAE frequency: Catheter site inflammation: 0
  TEAE frequency: Contusion: 0
  TEAE frequency: Dermatitis contact: 2 (33.3)
  TEAE frequency: Diarrhea: 0
  TEAE frequency: Dizziness: 0
  TEAE frequency: Medical device site reaction: 0
  TEAE frequency: Rhinitis: 0
  TEAE frequency: headache: 0
[1]; 10 mg QD
  time to steady state: 7 days
[1]; 10 mg QD 14 days (n = 6)
  Subject incidence of TEAEs considered possibly treatment-related: 0 n (%)
  Subject incidence of any TEAE: 6 (100) n (%)
  TEAE frequency: Back pain: 0
  TEAE frequency: Catheter site inflammation: 0
  TEAE frequency: Contusion: 0
  TEAE frequency: Dermatitis contact: 0
  TEAE frequency: Diarrhea: 0
  TEAE frequency: Dizziness: 0
  TEAE frequency: Medical device site reaction: 6 (100)
  TEAE frequency: Rhinitis: 1 (16.7)
  TEAE frequency: headache: 0
[1]; 1, 4, 10 mg QD
  half-life versus dose: increased with dose
[1]; between dose groups on Day 1
  plasma PK exposure, dose proportionality: greater than dose proportional
[1]; 1 mg, 1 mg QD, Day 1
  Cmax: 0.568 ng/mL
  Tmax: 1.53 h
[1]; 1 mg, 1 mg QD, Last day (of 7)
  AUC(0-t): 13.3 ng·h/mL
  Cmax: 2.75 ng/mL
  Tmax: 2.51 h
[1]; 4 mg, 4 mg QD, Day 1
  AUC(0-t): 17.1 ng·h/mL
  Cmax: 5.11 ng/mL
  Tmax: 2.02 h
[1]; 4 mg, 4 mg QD, Last day (of 7)
  AUC(0-t): 198 ng·h/mL
  Cmax: 18.6 ng/mL
  Tmax: 3.03 h
[1]; 10 mg, 10 mg QD, Day 1
  AUC(0-t): 102 ng·h/mL
  Cmax: 17.7 ng/mL
  Tmax: 1.9 h
[1]; [4]
  AUC(0-t): 656 ng·h/mL
  Cmax: 47.5 ng/mL
  Tmax: 3.98 h
[1]; 1 mg QD, Last day (of 7)
  half-life: 2.27 h
[1]; 4 mg QD, Last day (of 7)
  half-life: 6.71 h
[1]; 10 mg QD, Last day (of 14)
  half-life: 13.3 h
[1]; overall Compound 1 (n = 18)
  Subject incidence of TEAEs considered possibly treatment-related: 1 (5.6) n (%)
  Subject incidence of any TEAE: 10 (55.6) n (%)
  TEAE frequency: Back pain: 0
  TEAE frequency: Catheter site inflammation: 0
  TEAE frequency: Contusion: 0
  TEAE frequency: Dermatitis contact: 3 (16.7)
  TEAE frequency: Diarrhea: 0
  TEAE frequency: Dizziness: 1 (5.6)
  TEAE frequency: Medical device site reaction: 6 (33.3)
  TEAE frequency: Rhinitis: 1 (5.6)
  TEAE frequency: headache: 1 (5.6)
[1]; up to 10 mg QD for 14 days
  safety and tolerability: mild (grade 1); also recorded: safe and well tolerated

## N#Cc1nn(-c2cc(Cl)c(Oc3n[nH]c(=O)c4ccccc34)c(Cl)c2)c(=O)[nH]c1=O [Compound 2, 2-(3,5-dichloro-4-((4-oxo-3,4-dihydrophthalazin-1-yl)oxy)phenyl)-3,5-dioxo-2,3,4,5-tetrahydro-1,2,4-triazine-6-carbonitrile]
[2]
  reduction of serum triglycerides from time 0: 30-80%
  reduction of total cholesterol in the serum: 30-70%
[3]; 10 mg capsule, 5% SLS, fasted vs high fat food
  food effect on PK performance: delayed Compound 2 Tmax but did not have an impact on the plasma exposure
[3]; 10 mg capsule, 5% SLS, pentagastrin vs famotidine pre-treatment
  pH effect on PK performance: Minimal pH effect
[3]; 50 mg capsule with vs without 5 wt % SLS, fasted beagle dogs
  increase of exposure (Cmax, AUC) by formulation with 5 wt % SLS: more than 70%
